Assays:
Assay in all cases: Test D pre-/postemergence plant response
Type in all cases: in vivo
[1] = test system: groundsel (common groundsel, Senecio vulgaris); conditions: Postemergence
Method in brief: (§1)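 Greenhouse assay: sown seeds in loam/sand received preemergence spray; simultaneously, emerged seedlings (1- to 4-leaf, 2–18 cm) got postemergence spray of the same surfactant-containing formulation. Rating at 14–21 days by visual comparison with controls, 0 = no effect to 100 = complete control.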

[2] = test system: black mustard (Brassica nigra)
Method in brief: as §1

[3] = test system: Surinam grass (Brachiaria decumbens)
Method in brief: as §1

[4] = test system: sowthistle (common sowthistle, Sonchus oleraceous)
Method in brief: as §1

[5] = test system: nutsedge (purple nutsedge, Cyperus rotundus)
Method in brief: as §1

[6] = test system: morningglory (pitted morningglory, Ipomoea lacunosa)
Method in brief: as §1

[7] = test system: signalgrass (broadleaf signalgrass, Brachiaria platyphylla)
Method in brief: as §1

[8] = test system: Russian thistle (Salsola kali)
Method in brief: as §1

[9] = test system: purslane (common purslane, Portulaca oleracea)
Method in brief: as §1

[10] = test system: chickweed (common chickweed, Stellaria media); conditions: Postemergence
Method in brief: as §1

[11] = test system: naked crabgrass (Digitaria nuda)
Method in brief: as §1

[12] = test system: quackgrass (Elytrigia repens)
Method in brief: as §1

[13] = test system: bermudagrass (Cynodon dactylon)
Method in brief: as §1

[14] = test system: Italian ryegrass (Lolium multiflorum)
Method in brief: as §1

[15] = test system: guineagrass (Panicum maximum)
Method in brief: as §1

[16] = test system: large crabgrass (Digitaria sanguinalis)
Method in brief: as §1

[17] = test system: field bindweed (Convolvulus arvensis)
Method in brief: as §1

[18] = 125 g ai/ha, scale 0 to 100 (0 no effect, 100 complete control)
[19] = 62 g ai/ha, scale 0 to 100 (0 no effect, 100 complete control)
[20] = Postemergence, 16 g ai/ha, scale 0 to 100
[21] = Postemergence, 31 g ai/ha, scale 0 to 100 (0 no effect, 100 complete control)
[22] = Postemergence, 125 g ai/ha, scale 0 to 100 (0 no effect, 100 complete control)
[23] = Postemergence, 62 g ai/ha, scale 0 to 100 (0 no effect, 100 complete control)
[24] = Preemergence, 16 g ai/ha, scale 0 to 100, 0 no effect, 100 complete control
[25] = Preemergence, 31 g ai/ha, scale 0 to 100 (0 no effect, 100 complete control)
[26] = Preemergence, 62 g ai/ha, scale 0 to 100
[27] = Preemergence, 125 g ai/ha, scale 0 to 100
[28] = Postemergence, 31 g ai/ha, scale 0 to 100

Structure (SMILES): O=C1CCCC(O)=C1C(=O)c1cnc(C2CC2)n(-c2ccccc2)c1=O [Compound 87]
- Plant response rating, Groundsel ([1]; 16 g ai/ha, scale 0 to 100): 98
- Plant response rating, Groundsel ([1]; 31 g ai/ha, scale 0 to 100): 98
- Plant response rating, Groundsel [1, 18]: 100
- Plant response rating, Groundsel [1, 19]: 100
- Plant response rating, Black Mustard [2, 20]: 40
- Plant response rating, Black Mustard [2, 21]: 65
- Plant response rating, Black Mustard [2, 22]: 100
- Plant response rating, Black Mustard [2, 23]: 100
- Plant response rating, Black Mustard [2, 24]: 75
- Plant response rating, Black Mustard [2, 25]: 75
- Plant response rating, Black Mustard [2, 26]: 100
- Plant response rating, Black Mustard [2, 27]: 100
- Plant response rating, Surinam Grass [3, 20]: 30
- Plant response rating, Surinam Grass [3, 28]: 40
- Plant response rating, Surinam Grass [3, 22]: 40
- Plant response rating, Surinam Grass [3, 23]: 40
- Plant response rating, Surinam Grass [3, 24]: 0
- Plant response rating, Surinam Grass [3, 25]: 50
- Plant response rating, Surinam Grass [3, 27]: 100
- Plant response rating, Sowthistle [4, 20]: 90
- Plant response rating, Sowthistle [4, 28]: 98
- Plant response rating, Sowthistle [4, 22]: 100
- Plant response rating, Sowthistle [4, 23]: 98
- Plant response rating, Sowthistle [4, 24]: 98
- Plant response rating, Sowthistle [4, 25]: 100
- Plant response rating, Sowthistle [4, 27]: 100
- Plant response rating, Nutsedge, Purple [5, 20]: 0
- Plant response rating, Nutsedge, Purple [5, 28]: 10
- Plant response rating, Nutsedge, Purple [5, 22]: 50
- Plant response rating, Nutsedge, Purple [5, 23]: 20
- Plant response rating, Nutsedge, Purple [5, 24]: 0
- Plant response rating, Nutsedge, Purple [5, 25]: 5
- Plant response rating, Nutsedge, Purple [5, 26]: 50
- Plant response rating, Nutsedge, Purple [5, 27]: 75
- Plant response rating, Morningglory [6, 20]: 40
- Plant response rating, Morningglory [6, 28]: 40
- Plant response rating, Morningglory [6, 22]: 50
- Plant response rating, Morningglory [6, 23]: 40
- Plant response rating, Morningglory [6, 24]: 10
- Plant response rating, Morningglory [6, 26]: 80
- Plant response rating, Morningglory [6, 27]: 95
- Plant response rating, Signalgrass [7, 20]: 20
- Plant response rating, Signalgrass [7, 28]: 30
- Plant response rating, Signalgrass [7, 22]: 60
- Plant response rating, Signalgrass [7, 23]: 60
- Plant response rating, Signalgrass [7, 24]: 0
- Plant response rating, Signalgrass [7, 25]: 0
- Plant response rating, Signalgrass [7, 27]: 75
- Plant response rating, Russian Thistle [8, 22]: 35
- Plant response rating, Russian Thistle [8, 24]: 50
- Plant response rating, Russian Thistle [8, 25]: 75
- Plant response rating, Russian Thistle [8, 27]: 100
- Plant response rating, Purslane [9, 20]: 10
- Plant response rating, Purslane [9, 28]: 25
- Plant response rating, Purslane [9, 22]: 35
- Plant response rating, Purslane [9, 23]: 35
- Plant response rating, Purslane [9, 24]: 70
- Plant response rating, Purslane [9, 25]: 100
- Plant response rating, Purslane [9, 26]: 100
- Plant response rating, Purslane [9, 27]: 100
- Plant response rating, Chickweed ([10]; 16 g ai/ha, scale 0 to 100): 75
- Plant response rating, Chickweed ([10]; 31 g ai/ha, scale 0 to 100): 75
- Plant response rating, Chickweed [10, 18]: 100
- Plant response rating, Chickweed [10, 19]: 75
- Plant response rating, Crabgrass, Naked [11, 20]: 50
- Plant response rating, Crabgrass, Naked [11, 28]: 60
- Plant response rating, Crabgrass, Naked [11, 22]: 75
- Plant response rating, Crabgrass, Naked [11, 23]: 70
- Plant response rating, Crabgrass, Naked [11, 25]: 80
- Plant response rating, Crabgrass, Naked [11, 26]: 100
- Plant response rating, Crabgrass, Naked [11, 27]: 100
- Plant response rating, Quackgrass [12, 20]: 0
- Plant response rating, Quackgrass [12, 28]: 0
- Plant response rating, Quackgrass [12, 22]: 5
- Plant response rating, Quackgrass [12, 23]: 0
- Plant response rating, Quackgrass [12, 24]: 0
- Plant response rating, Quackgrass [12, 25]: 0
- Plant response rating, Quackgrass [12, 27]: 0
- Plant response rating, Bermudagrass [13, 20]: 65
- Plant response rating, Bermudagrass [13, 21]: 65
- Plant response rating, Bermudagrass [13, 22]: 85
- Plant response rating, Bermudagrass [13, 23]: 70
- Plant response rating, Bermudagrass [13, 24]: 65
- Plant response rating, Bermudagrass [13, 25]: 65
- Plant response rating, Bermudagrass [13, 26]: 98
- Plant response rating, Bermudagrass [13, 27]: 98
- Plant response rating, Ryegrass, Italian [14, 20]: 0
- Plant response rating, Ryegrass, Italian [14, 28]: 0
- Plant response rating, Ryegrass, Italian [14, 22]: 5
- Plant response rating, Ryegrass, Italian [14, 23]: 0
- Plant response rating, Ryegrass, Italian [14, 24]: 0
- Plant response rating, Ryegrass, Italian [14, 25]: 0
- Plant response rating, Ryegrass, Italian [14, 27]: 30
- Plant response rating, Guineagrass [15, 20]: 10
- Plant response rating, Guineagrass [15, 28]: 20
- Plant response rating, Guineagrass [15, 22]: 30
- Plant response rating, Guineagrass [15, 23]: 20
- Plant response rating, Guineagrass [15, 24]: 0
- Plant response rating, Guineagrass [15, 25]: 0
- Plant response rating, Guineagrass [15, 26]: 50
- Plant response rating, Guineagrass [15, 27]: 75
- Plant response rating, Crabgrass, Large [16, 20]: 40
- Plant response rating, Crabgrass, Large [16, 28]: 65
- Plant response rating, Crabgrass, Large [16, 22]: 75
- Plant response rating, Crabgrass, Large [16, 23]: 70
- Plant response rating, Crabgrass, Large [16, 24]: 50
- Plant response rating, Crabgrass, Large [16, 25]: 75
- Plant response rating, Crabgrass, Large [16, 26]: 95
- Plant response rating, Crabgrass, Large [16, 27]: 100
- Plant response rating, Field Bindweed [17, 20]: 0
- Plant response rating, Field Bindweed [17, 28]: 15
- Plant response rating, Field Bindweed [17, 22]: 40
- Plant response rating, Field Bindweed [17, 23]: 25
- Plant response rating, Field Bindweed [17, 24]: 0
- Plant response rating, Field Bindweed [17, 25]: 0
- Plant response rating, Field Bindweed [17, 26]: 40
- Plant response rating, Field Bindweed [17, 27]: 70

From US8952024B2, “Herbicidal pyrimidone derivatives” (E I du Pont de Nemours and Company, priority 2009, dated 2015)
